Results published in PMC12567244, “Innovative Amino-Functionalization of Pyrido[2,3-d]pyrimidine Scaffolds for Broad Therapeutic Applications Supported by Computational Analyses” (Pharmaceuticals, 2025).
“And” between values parts separate entries of the source, which are not always exact repeats. Identical values can stand only once.

How the values were obtained:
liver carcinoma (HepG-2) = test: MTT cytotoxicity assay, HepG-2; conditions: for SI HepG-2: IC50 WI-38 / IC50 HepG-2; for IC50: read-out: IC50 HepG-2, MTT, mean ± SD of three measurements
[1] = system: cervical carcinoma (HeLa); test: MTT cytotoxicity assay, HeLa; conditions: for SI HeLa: IC50 WI-38 / IC50 HeLa; for IC50: read-out: IC50 HeLa, MTT, mean ± SD of three measurements
breast carcinoma (MCF-7) = test: MTT cytotoxicity assay, MCF-7; conditions: for SI MCF-7: IC50 WI-38 / IC50 MCF-7; for IC50: read-out: IC50 MCF-7, MTT, mean ± SD of three measurements
in vitro = conditions: human, WI-38 normal lung fibroblast cells
HeLa, HepG-2, and MCF-7 = test: MTT cytotoxicity, range over the cancer cell panel; conditions: read-out: IC50 across HeLa, HepG-2 and MCF-7; range over all examined cancer cell lines
P. aeruginosa ATCC10145 = test: Well diffusion inhibition zone, P. aeruginosa; conditions: Pseudomonas aeruginosa, ATCC10145, read-out: Inhibition zone P. aeruginosa ATCC10145

| Compound | SI HepG-2 (liver carcinoma (HepG-2)) | IC50 (liver carcinoma (HepG-2)) [µM] | SI HeLa [1] | IC50 [1] [µM] | SI MCF-7 (breast carcinoma (MCF-7)) | IC50 (breast carcinoma (MCF-7)) [µM] | IC50 at 48 h (in vitro) [µM] | IC50 (HeLa, HepG-2, and MCF-7) | zone of inhibition at 100 µg/mL (P. aeruginosa ATCC10145) [mm] |
| --- | --- | --- | --- | --- | --- | --- | --- | --- | --- |
| Cn1c(=O)c2c(-c3ccc(Cl)cc3)c(C3=NN=C(N)C3C#N)c(N)nc2n(C)c1=O (stereo not shown) [Compound 8, 3-Amino-5-[7-amino-5-(4-chlorophenyl)-1,3-dimethyl-2,4-dioxo-1,2,3,4-tetrahydropyrido[2,3-d]pyrimidin-6-yl]-4H-pyrazole-4-carbonitrile] | 0.30 | 82.8 ± 4.1 | 0.35 | 71.4 ± 3.8 | 0.31 | 79.3 ± 3.9 | 25.2 ± 1.8 | > 50 µM and 62 to 88 µM |  |
| Cn1c(=O)c2c(-c3ccc(Cl)cc3)c(C(=O)NC(=S)NN)c(N)nc2n(C)c1=O [Compound 5, 7-Amino-5-(4-chlorophenyl)-N-(hydrazinecarbonothioyl)-1,3-dimethyl-2,4-dioxo-1,2,3,4-tetrahydropyrido[2,3-d]pyrimidine-6-carboxamide] |  | > 100 | 0.39 | 89.4 ± 4.6 | 0.41 | 84.1 ± 4.2 | 35.2 ± 2.2 | > 84 µM |  |
| Cn1c(=O)c2c(-c3ccc(Cl)cc3)c(C(=O)Nc3n[nH]cc3NN)c(N)nc2n(C)c1=O [Compound 3, 7-Amino-5-(4-chlorophenyl)-N-(4-hydrazinyl-1H-pyrazol-3-yl)-1,3-dimethyl-2,4-dioxo-1,2,3,4-tetrahydropyrido[2,3-d]pyrimidine-6-carboxamide] | 2.46 | 21.4 ± 1.5 | 3.73 | 14.1 ± 1.2 | 2.70 | 19.5 ± 1.3 | 52.8 ± 2.9 | 14 to 26 µM |  |
| Cn1c(=O)c2c(-c3ccc(Cl)cc3)c(-c3nnc(S)o3)c(N)nc2n(C)c1=O [Compound 7, 7-Amino-5-(4-chlorophenyl)-6-(5-mercapto-1,3,4-oxadiazol-2-yl)-1,3-dimethylpyrido[2,3-d]pyrimidine-2,4(1H,3H)-dione] | 1.52 | 17.5 ± 1.3 | 2.75 | 9.72 ± 0.9 | 2.30 | 11.6 ± 0.9 | 26.8 ± 1.8 | 9.72 to 17.5 µM |  |
| Cc1cc(C)n(C(=O)c2c(N)nc3c(c2-c2ccc(Cl)cc2)c(=O)n(C)c(=O)n3C)n1 [Compound 6, 7-Amino-5-(4-chlorophenyl)-6-(3,5-dimethyl-1H-pyrazole-1-carbonyl)-1,3-dimethylpyrido[2,3-d]pyrimidine-2,4(1H,3H)-dione] | 1.29 | 29.7 ± 1.8 | 1.54 | 24.8 ± 1.6 | 1.20 | 32 ± 1.9 | 38.4 ± 2.6 | 24 to 32 µM |  |
| C#Cc1cccc(Nc2ncnc3cc(OCCOC)c(OCCOC)cc23)c1 [Erlotinib, erlotinib, reference compound] |  | 9.18 ± 0.6 |  | 8.04 ± 0.5 |  | 7.26 ± 0.3 | 78.3 ± 3.9 |  |  |
| Cn1c(=O)c2c(-c3ccc(Cl)cc3)c(-c3nn(CCc4nn[nH]n4)c(=S)o3)c(N)nc2n(C)c1=O [Compound 10, 6-{4-[2-(2H-Tetrazol-5-yl)ethyl]-5-thioxo-4,5-dihydro-1,3,4-oxadiazol-2-yl}-7-amino-5-(4-chlorophenyl)-1,3-dimethylpyrido[2,3-d]pyrimidine-2,4(1H,3H)-dione] | 0.54 | 69.4 ± 3.7 | 0.77 | 48.7 ± 2.8 | 0.71 | 53.1 ± 3.1 | 37.9 ± 2.4 | > 50 µM | 6 |
| Cn1c(=O)c2c(-c3ccc(Cl)cc3)c(-c3nnc(S)n3N)c(N)nc2n(C)c1=O [Compound 4, 7-Amino-6-(4-amino-5-mercapto-4H-1,2,4-triazol-3-yl)-5-(4-chlorophenyl)-1,3-dimethylpyrido[2,3-d]pyrimidine-2,4(1H,3H)-dione] | 1.99 | 23.1 ± 1.6 | 2.43 | 18.9 ± 1.4 | 1.76 | 26.1 ± 1.7 | 46.1 ± 2.7 | 14 to 26 µM | 6 |
